This note sets out measurements from patent US20240360114A1 (SIRONAX LTD., priority 2021, published 2024).

pEC50: −log10 of the molar value.

One experiment has as its system HT-1080 cells. Briefly: HT-1080 cell viability assay (ferroptosis induced by RSL3, Cell Titer-Glo). It is filed as cell-based. Particulars: Homo sapiens, HT-1080, 20 h, ferroptosis inducer RSL3, 20 hours, ferroptosis inhibitory activity, Table 2. As for the experimental part: Example 2. Determination of EC50 Values in HT-1080 Cell Viability Assay
HT-1080 (ATCC, CCL-121) cells (6000 in 100 μl) were seeded in 96-well plates (Corning) and cultured in a 37° C. incubator with a humidified atmosphere of 5% CO2 for overnight. Cells were then treated with ferroptosis inducer RSL3 (TargetMol) and a 3-fold, 10-point serial dilution series of compounds with 1.1 μM as the highest concentration, for 20 hours. Cell viability was assessed using the Cell Titer-Glo Kit (Promega). The luminescence intensity was measured with a microplate reader (Envision, PerkinElmer), and cell viability was calculated by normalizing the data to untreated controls. The EC50 values of the compounds (e.g., Compounds 1-573 and 574-661) were calculated in GraphPad Prism (GraphPad Software, Inc., San Diego, CA, USA). The curves were fitted using a non-linear regression model with a sigmoidal dose response.
For orientation: ATP-based viability assays read luminescence as a measure of living cells.
Usually pEC50 stands for −log10 of the EC50, conventionally taken in molar units. Higher therefore signals a low EC50. `Cc1cc(N2CCC(C(F)(F)F)CC2)nc(F)c1NC1CCC(CN)CC1` (stereo not shown) [Compound 22, N-(4-(aminomethyl)cyclohexyl)-2-fluoro-4-methyl-6-(4-(trifluoromethyl)piperidin-1-yl)pyridin-3-amine] had a pEC50 of 6.00 to 7.00.

In turn, `Cc1nc(N2CCC(C(F)(F)F)CC2)ccc1NC1CCC(CN)CC1` (stereo not shown) [Compound 25, N-(4-(aminomethyl)cyclohexyl)-2-methyl-6-(4-(trifluoromethyl)piperidin-1-yl)pyridin-3-amine] showed a pEC50 of 7.00 to 10.00.

Consider `Cc1nc(N2CCC(C)CC2)ccc1NC1CCC(CN)CC1` (stereo not shown) [Compound 26, N-(4-(aminomethyl)cyclohexyl)-2-methyl-6-(4-methylpiperidin-1-yl)pyridin-3-amine], for which the pEC50 is 7.00 to 10.00. The same measure, in the same setting: then `CN1CCC(Nc2ccc(N3CCC(C(F)(F)F)CC3)cc2)CC1=O` (stereo not shown) [Compound 27, 1-methyl-4-((4-(4-(trifluoromethyl)piperidin-1-yl)phenyl)amino)piperidin-2-one], with 6.00 to 7.00; and `CC(C)C1CCN(c2ncc(NC3CC(N)C3)cn2)CC1` (stereo not shown) [Compound 28, N1-(2-(4-isopropylpiperidin-1-yl)pyrimidin-5-yl)cyclobutane-1,3-diamine], with 7.00 to 10.00; and `CCCC1CCN(c2ncc(NC3CCC(N)CC3)cn2)CC1` (stereo not shown) [Compound 29, N1-(2-(4-propylpiperidin-1-yl)pyrimidin-5-yl)cyclohexane-1,4-diamine], with 7.00 to 10.00. The compound `CCCCC1CCN(c2ccc(NC3CCC(CN)CC3)c(C)n2)CC1` (stereo not shown) [Compound 30, N-(4-(aminomethyl)cyclohexyl)-6-(4-butylpiperidin-1-yl)-2-methylpyridin-3-amine] showed a pEC50 of 7.00 to 10.00. `Cc1nc(N2CCC(C(C)C)CC2)ccc1NC1CCC(CN)CC1` (stereo not shown) [Compound 31, N-(4-(aminomethyl)cyclohexyl)-6-(4-isopropylpiperidin-1-yl)-2-methylpyridin-3-amine]: the pEC50 was 7.00 to 10.00. `Cc1nc(N2CCC(C)(C)CC2)ccc1NC1CCC(CN)CC1` (stereo not shown) [Compound 32A, N-(4-(aminomethyl)cyclohexyl)-6-(4,4-dimethylpiperidin-1-yl)-2-methylpyridin-3-amine] had a pEC50 of 7.00 to 10.00. Regarding `CC1(C)CN(c2ncc(NC3CCC(N)CC3)cn2)C1` (stereo not shown) [Compound 33A, N1-(2-(3,3-dimethylazetidin-1-yl)pyrimidin-5-yl)cyclohexane-1,4-diamine], the pEC50 is 5.00 to 6.00.

For the compound `CC(C)C1CCN(c2ncc(NC3CCC(N)CC3)cn2)CC1` (stereo not shown) [Compound 34A, N1-(2-(4-isopropylpiperidin-1-yl)pyrimidin-5-yl)cyclohexane-1,4-diamine], the pEC50 is 7.00 to 10.00. Same read-out and setting: then `CC(C)C1CCN(c2ncc(NC3CCNCC3)cn2)CC1` [Compound 35, 2-(4-isopropylpiperidin-1-yl)-N-(piperidin-4-yl)pyrimidin-5-amine], with 7.00 to 10.00.

Turning to `CC(C)C1CCN(c2ncc(NC3CCNC3)cn2)CC1` (stereo not shown) [Compound 36, 2-(4-isopropylpiperidin-1-yl)-N-(pyrrolidin-3-yl)pyrimidin-5-amine], the pEC50 is 7.00 to 10.00. As to `NC1CCC(Nc2ccc(-n3cccn3)cc2)CC1` (stereo not shown) [Compound 37A, N1-(4-(1H-pyrazol-1-yl)phenyl)cyclohexane-1,4-diamine], the pEC50 was 5.00 to 6.00. Same read-out and setting: then `CC(C)C1CCN(c2ncc(NC3CCC(N)C3)cn2)CC1` (stereo not shown) [Compound 38, N1-(2-(4-isopropylpiperidin-1-yl)pyrimidin-5-yl)cyclopentane-1,3-diamine], with 7.00 to 10.00; and `COCCCCOc1cc(NC2CCC(N)CC2)ccc1N1CCC(C(F)(F)F)CC1` (stereo not shown) [Compound 39, N1-(3-(4-methoxybutoxy)-4-(4-(trifluoromethyl)piperidin-1-yl)phenyl)cyclohexane-1,4-diamine], with 7.00 to 10.00.

`NC1CCC(Nc2ccc(N3CCC(C(F)(F)F)CC3)cc2)CC1` (stereo not shown) [Compound 40, N1-(4-(4-(trifluoromethyl)piperidin-1-yl)phenyl)cyclohexane-1,4-diamine] had a pEC50 of 7.00 to 10.00. On the same count and under the same terms, then `NCCOc1cc(NC2CCC(N)CC2)ccc1N1CCC(C(F)(F)F)CC1` (stereo not shown) [Compound 41A, N1-(3-(2-aminoethoxy)-4-(4-(trifluoromethyl)piperidin-1-yl)phenyl)cyclohexane-1,4-diamine], with 6.00 to 7.00. `NC1CCC(Nc2cnc(N3CCC(C(F)(F)F)CC3)nc2)CC1` (stereo not shown) [Compound 42, N1-(2-(4-(trifluoromethyl)piperidin-1-yl)pyrimidin-5-yl)cyclohexane-1,4-diamine]: the pEC50 is 7.00 to 10.00. `CCC1CCN(c2ncc(NC3CCC(N)CC3)cn2)CC1` (stereo not shown) [Compound 43, N1-(2-(4-ethylpiperidin-1-yl)pyrimidin-5-yl)cyclohexane-1,4-diamine] showed a pEC50 of 7.00 to 10.00. `CC1CCN(c2ncc(NC3CCC(N)CC3)cn2)CC1` (stereo not shown) [Compound 44, N1-(2-(4-methylpiperidin-1-yl)pyrimidin-5-yl)cyclohexane-1,4-diamine]: the pEC50 is 7.00 to 10.00. Still for that read-out and setting: then `CC1(C)CCN(c2ncc(NC3CCC(N)CC3)cn2)CC1` (stereo not shown) [Compound 45, N1-(2-(4,4-dimethylpiperidin-1-yl)pyrimidin-5-yl)cyclohexane-1,4-diamine], with 7.00 to 10.00; and `CCCC1CN(c2ncc(NC3CCC(N)CC3)cn2)C1` (stereo not shown) [Compound 46, N1-(2-(3-propylazetidin-1-yl)pyrimidin-5-yl)cyclohexane-1,4-diamine], with 6.00 to 7.00; and `NC1CCC(Nc2cnc(N3CC4(CCC4)C3)nc2)CC1` (stereo not shown) [Compound 47, N1-(2-(2-azaspiro[3.3]heptan-2-yl)pyrimidin-5-yl)cyclohexane-1,4-diamine], with 6.00 to 7.00. `CC(C)C1CCN(c2ncc(NC3CCC(CN)C3)cn2)CC1` (stereo not shown) [Compound 48, N-(3-(aminomethyl)cyclopentyl)-2-(4-isopropylpiperidin-1-yl)pyrimidin-5-amine] showed a pEC50 of 7.00 to 10.00.

`CC(C)C1CCN(c2ncc(NC3CC(CN)C3)cn2)CC1` (stereo not shown) [Compound 49, N-(3-(aminomethyl)cyclobutyl)-2-(4-isopropylpiperidin-1-yl)pyrimidin-5-amine] had a pEC50 of 7.00 to 10.00.

For `CC(C)C1CCN(c2ncc(NC3CCC(C)(N)CC3)cn2)CC1` (stereo not shown) [Compound 50, N1-(2-(4-isopropylpiperidin-1-yl)pyrimidin-5-yl)-4-methylcyclohexane-1,4-diamine], the pEC50 is 7.00 to 10.00. With `CC1(N)CCC(Nc2ccc(N3CCC(C(F)(F)F)CC3)cc2)CC1` (stereo not shown) [Compound 51, 1-methyl-N4-(4-(4-(trifluoromethyl)piperidin-1-yl)phenyl)cyclohexane-1,4-diamine], the pEC50 was 7.00 to 10.00. Still for that read-out and setting: then `NC1CCC(Nc2cnc(N3CCC(C(F)(F)F)CC3)cn2)CC1` (stereo not shown) [Compound 52, N1-(5-(4-(trifluoromethyl)piperidin-1-yl)pyrazin-2-yl)cyclohexane-1,4-diamine], with 7.00 to 10.00; and `CC1CCN(c2ccc(NC3CCC(N)CC3)cc2C(F)(F)F)CC1` (stereo not shown) [Compound 53A, N1-(4-(4-methylpiperidin-1-yl)-3-(trifluoromethyl)phenyl)cyclohexane-1,4-diamine], with 7.00 to 10.00. Same read-out and setting: then `NC1CCC(Nc2cc(F)c(N3CCC(C(F)(F)F)CC3)c(F)c2)CC1` (stereo not shown) [Compound 54A, N1-(3,5-difluoro-4-(4-(trifluoromethyl)piperidin-1-yl)phenyl)cyclohexane-1,4-diamine], with 7.00 to 10.00; and `CC1(C)CCN(c2ccc(NC3CCC(N)CC3)cc2C(F)(F)F)CC1` (stereo not shown) [Compound 55, N1-(4-(4,4-dimethylpiperidin-1-yl)-3-(trifluoromethyl)phenyl)cyclohexane-1,4-diamine], with 7.00 to 10.00. Same read-out and setting: then `Cc1cc(N2CCC(C(F)(F)F)CC2)c(Cl)cc1NC1CCC(N)CC1` (stereo not shown) [Compound 56, N1-(5-chloro-2-methyl-4-(4-(trifluoromethyl)piperidin-1-yl)phenyl)cyclohexane-1,4-diamine], with 7.00 to 10.00; and `Cc1c(NC2CCC(N)CC2)ccc(N2CCC(C(F)(F)F)CC2)c1F` (stereo not shown) [Compound 57, N1-(3-fluoro-2-methyl-4-(4-(trifluoromethyl)piperidin-1-yl)phenyl)cyclohexane-1,4-diamine], with 7.00 to 10.00. For the compound `Cc1cc(N2CCC(C(F)(F)F)CC2)c(F)cc1NC1CCC(N)CC1` (stereo not shown) [Compound 58, N1-(5-fluoro-2-methyl-4-(4-(trifluoromethyl)piperidin-1-yl)phenyl)cyclohexane-1,4-diamine], the pEC50 is 7.00 to 10.00. In turn, `Cc1cc(N2CCC(C(F)(F)F)CC2)c(C)cc1NC1CCC(N)CC1` (stereo not shown) [Compound 59, N1-(2,5-dimethyl-4-(4-(trifluoromethyl)piperidin-1-yl)phenyl)cyclohexane-1,4-diamine] gave a pEC50 of 7.00 to 10.00. Same read-out and setting: then `CC1CCN(c2ccc(NC3CCC(N)CC3)cc2)CC1` (stereo not shown) [Compound 60, N1-(4-(4-methylpiperidin-1-yl)phenyl)cyclohexane-1,4-diamine], with 7.00 to 10.00; and `CCC1CCN(c2ccc(NC3CCC(N)CC3)cc2)CC1` (stereo not shown) [Compound 61, N1-(4-(4-ethylpiperidin-1-yl)phenyl)cyclohexane-1,4-diamine], with 7.00 to 10.00. Still for that read-out and setting: then `CC1(C)CCN(c2ccc(NC3CCC(N)CC3)cc2)CC1` (stereo not shown) [Compound 62, N1-(4-(4,4-dimethylpiperidin-1-yl)phenyl)cyclohexane-1,4-diamine], with 7.00 to 10.00.

Staying with this experiment, now noted: Homo sapiens, ferroptosis inducer RSL3, 20 hours, ferroptosis inhibitory activity, Table 2.
The compound `CC(C)C1CCN(c2ncc(NC3CCC(CN)CC3)cn2)CC1` (stereo not shown) [Compound 24A, N-(4-(aminomethyl)cyclohexyl)-2-(4-isopropylpiperidin-1-yl)pyrimidin-5-amine] gave a pEC50 of 7.00 to 10.00.
